In patent publication US20240398781A1, “SPIROCYCLIC CYCLIC MODULATORS OF CHOLESTEROL BIOSYNTHESIS AND THEIR USE FOR PROMOTING REMYELINATION” (GENENTECH, INC., priority 2021, published 2024) one finds Ki and EC50 data, which are given here for 22 compounds.

Like-named read-outs stand apart in the source and are kept apart here.

A word on the Ki: it is a measure of affinity in units of concentration, obtained from inhibition or displacement. Read a low Ki as a stronger hold on the target. What is called EC50 is the concentration that produces a half-maximal response.

Assay [1] deals with human emopamil binding protein and human 7-dehydrocholesterol reductase co-expressing cells (hEBP-DHCR7 membrane) (Homo sapiens (Human), UniProt Q15125). As to the kind of experiment: Radioligand filter binding assay on hEBP-DHCR7 membrane. The conditions noted are these: [3H]-(S)-6-(2-Methyl-3-(6-(trifluoromethyl)pyridin-3-yl)propyl)-2-thia-6-azaspiro[3.4]octane 2,2-dioxide radioligand, HEK293 membrane co-expressing hEBP and hDHCR7. The method in brief:
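HEK293 cells transiently co-expressing human EBP and DHCR7 supplied whole-cell membranes (10 μg/well), incubated 3 h at 22 °C with [3H]-labelled spiro-octane dioxide ligand (added at 25 nM) and compound (0.06-5000 nM final, 8 doses, n=2). Bound ligand was collected on PEI-treated GF/B filters and counted by scintillation. IC50 was Hill-fitted from % inhibition and reported as Ki.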

The test system of assay [2] is EBP (zymostenol accumulation in EpiSC-derived OPCs). As to the kind of experiment: GC/MS-based sterol profiling, zymostenol accumulation in OPCs. Type of assay: cell-based, mouse. The settings on record: EpiSC-derived OPCs, 24 hr treatment, 8 doses from 0.15 nM to 333 nM, read-out: Zymostenol GCMS EC50. The essentials:
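EpiSC-derived OPCs (100,000/well) were treated 24 h in N2B27 without growth factors. Sterols were TMS-derivatized and analysed by GC/MS full-scan EI, quantified against cholesterol-d7. Zymostenol was normalized to the level after 24 h with 100 nM positive control reference.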

Another assay deals with EpiSC-derived OPCs. Put plainly: In vitro phenotypic screening of OPCs (MBP staining, high-content imaging). The conditions noted are these: percentage of MBP+ oligodendrocytes, 3 days, 0.5 nM to 1000 nM, read-out: OPC EC50. It is filed as cell-based, mouse. The procedure:
To assess effects of treatments on OPCs, all treatments were assayed in two or more independent platings of epiblast stem cell-derived OPCs (EpiSC). EpiSC-derived OPCs were obtained using in vitro differentiation protocols and culture conditions described previously (Najm et al, 2011, Nature Methods). OPCs were expanded and frozen down in aliquots. OPCs were thawed into growth conditions for at least one passage before use in further assays.
EpiSC-derived OPCs were grown and expanded in poly-L-ornithine (PO) and laminin-coated flasks in N2B27 media (DMEM/F12 (Gibco), N2-MAX (R&D Systems), B-27 (ThermoFisher), and GlutaMax (Gibco)) supplemented with FGF2 ([…], R&D systems, 233-FB-025) and PDGF-AA ([…], R&D systems, 233-AA-050) before harvesting for experiments. The cells were seeded onto poly-L-ornithine or poly-D-lysine coated CellCarrier Ultra plates (PerkinElmer) coated with laminin (Sigma, L2020) at a density of 150,000/cm^2 in N2B27 media without growth factors. For dose-response testing, a 1000× compound stock in dimethyl sulphoxide (DMSO) was added to assay plates, resulting in 8-point dose curves with final concentrations between 1000 nM and 0.5 nM. Positive controls and DMSO vehicle controls were included in each assay plate. Cells were incubated under standard conditions (37° C., 5% CO2) for 3 days and fixed with 4% paraformaldehyde (PFA) in phosphate buffered saline (PBS) for 20 min. Fixed plates were washed with PBS, permeabilized with 0.1% Triton X-100, and blocked with 10% donkey serum (v/v) in PBS for 40 min. Then, cells were labelled with MBP antibodies (Abcam, ab7349; 1:200) for 2 h at room temperature, washed with PBS, and stained with Alexa Fluor conjugated secondary antibodies (1:500) for 45 min. Nuclei were visualized by DAPI staining (Sigma; 1 μg/ml), followed by further PBS washes.
Cells and cell culture plates were imaged on the Operetta High Content Imaging and Analysis system (PerkinElmer). Analysis (PerkinElmer Harmony and Columbus software) began by identifying intact nuclei stained by DAPI. The peri-nuclear region of each cell was then cross-referenced with the mature myelin protein (MBP) stain to identify oligodendrocyte nuclei, and from this the percentage of oligodendrocytes was calculated. EC50 values were calculated using The Levenberg-Marquardt algorithm to fit a Hill equation to dose-response data (0.5 nM to 1000 nM).

human emopamil binding protein and human 7-dehydrocholesterol reductase co-expressing cells (hEBP-DHCR7 membrane), sequence (Q15125 whole entry): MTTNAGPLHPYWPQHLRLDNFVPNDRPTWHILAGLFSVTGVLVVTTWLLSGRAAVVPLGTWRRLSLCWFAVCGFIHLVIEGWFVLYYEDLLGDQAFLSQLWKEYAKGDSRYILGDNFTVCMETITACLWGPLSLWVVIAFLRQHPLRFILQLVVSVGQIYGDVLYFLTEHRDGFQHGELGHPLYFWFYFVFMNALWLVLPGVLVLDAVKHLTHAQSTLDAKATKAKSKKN

The compound `CCc1nc(C(F)(F)F)ccc1[C@H]1CC[C@H](N2CCC3(C2)CS(=O)(=O)C3)CC1` [Compound 64A, 6-((1r,4r)-4-(2-ethyl-6-(trifluoromethyl)pyridin-3-yl)cyclohexyl)-2-thia-6-azaspiro[3.4]octane 2,2-dioxide] yielded a Ki in assay [1] of 0.015 µM. Further, the EC50 in assay [2] (Mus musculus, 24 h) was found to be 0.0037 µM; with EpiSC-derived OPCs (Mus musculus, 72 h), 0.011 µM.
The matching figures for `O=S1(=O)CCC2(CCN([C@H]3CC[C@@H](c4ccc(C(F)(F)F)nc4)CC3)C2)CC1` [Compound 95B, 2-((1s,4s)-4-(6-(trifluoromethyl)pyridin-3-yl)cyclohexyl)-8-thia-2-azaspiro[4.5]decane 8,8-dioxide]: 0.17 µM, 0.022 µM and 0.043 µM.
In assay [1], `O=S1(=O)CC2(CCN([C@@H]3CCC[C@@H](c4ccc(C(F)(F)F)nc4)C3)C2)C1` (single isomer, unassigned) [54B*] showed a Ki of 0.1 µM. Further, the EC50 in assay [2] (Mus musculus, 24 h) was determined as 0.24 µM; with EpiSC-derived OPCs (Mus musculus, 72 h), 1 µM.
As for `CC(C)n1nc(-c2cccc(C(F)(F)F)n2)cc1[C@@H]1CC[C@H](N2CCC3(CC2)CS(=O)(=O)C3)C1` (single isomer, unassigned) [46B*], the Ki in assay [1] was determined as 0.035 µM. In addition, the EC50 in assay [2] (Mus musculus, 24 h) worked out at 0.0027 µM; in the assay with EpiSC-derived OPCs (Mus musculus, 72 h), 0.0049 µM.
For `CC(C)n1nc(-c2ccc(C(F)(F)F)cc2)nc1[C@H]1CC[C@H](N2CCC3(C2)CS(=O)(=O)C3)C1` (single isomer, unassigned) [53A*], the affinity in assay [1] corresponds to a Ki of 0.012 µM. For the same compound, the half-maximal effective concentration (EC50) in assay [2] (Mus musculus, 24 h) was 0.0012 µM; in the assay on EpiSC-derived OPCs (Mus musculus, 72 h), 0.0023 µM.
On to `O=S1(=O)CC[C@]2(CCCN([C@H]3CC[C@@H](c4cc(C(F)(F)F)nn4C4CC4)CC3)C2)C1` (single isomer, unassigned) [69C*], for which, in assay [1], the Ki came out at 0.027 µM. Moreover, the 50% effective concentration (EC50) in assay [2] (Mus musculus, 24 h) was 0.006 µM; with EpiSC-derived OPCs (Mus musculus, 72 h), 0.044 µM.
On the same counts, the results for `O=S1(=O)CC2(CCN([C@H]3CC[C@H](c4cc(C(F)(F)F)ncc4Cl)CC3)C2)C1` [Compound 87, 6-((1r,4r)-4-(5-Chloro-2-(trifluoromethyl)pyridin-4-yl)cyclohexyl)-2-thia-6-azaspiro[3.4]octane 2,2-dioxide] are 0.012 µM, 0.0088 µM and 0.033 µM.
`O=S1(=O)CCC2(CCN([C@H]3CC[C@H](c4ccc(C(F)(F)F)cn4)CC3)C2)CC1` [84B*, 2-((1s,4s)-4-(5-(Trifluoromethyl)pyridin-2-yl)cyclohexyl)-8-thia-2-azaspiro[4.5]decane 8,8-dioxide] came in with a Ki in assay [1] of 0.069 µM. In addition, the EC50 in assay [2] (Mus musculus, 24 h) was 0.027 µM; with EpiSC-derived OPCs (Mus musculus, 72 h), 0.13 µM.
The compound `O=S1(=O)CC2(CCN([C@H]3CC[C@H](c4ccnc(C(F)(F)F)n4)CC3)C2)C1` [Compound 88, 6-((1r,4r)-4-(2-(Trifluoromethyl)pyrimidin-4-yl)cyclohexyl)-2-thia-6-azaspiro[3.4]octane 2,2-dioxide] came in with a Ki in assay [1] of 0.073 µM. For the same compound, the EC50 in assay [2] (Mus musculus, 24 h) was 0.016 µM; with EpiSC-derived OPCs (Mus musculus, 72 h), 0.11 µM.
The compound `O=S1(=O)CC2(CCN([C@H]3CC[C@H](c4ccc(F)c(F)c4)CC3)CC2)C1` [Compound 77A, 7-((1r,4r)-4-(3,4-Difluorophenyl)cyclohexyl)-2-thia-7-azaspiro[3.5]nonane 2,2-dioxide] yielded a Ki in assay [1] of 0.033 µM. Further, the EC50 in assay [2] (Mus musculus, 24 h) was found to be 0.0057 µM; in the assay with EpiSC-derived OPCs (Mus musculus, 72 h), 0.013 µM.
In turn, `CC(C)n1nc(-c2ccc(C(F)(F)F)cc2)nc1[C@@H]1CC[C@@H](N2CCC3(C2)CS(=O)(=O)C3)C1` (single isomer, unassigned) [53D*] yielded a Ki in assay [1] of 0.096 µM. The EC50 is 0.001 µM in assay [2] (Mus musculus, 24 h) and 0.0033 µM with EpiSC-derived OPCs (Mus musculus, 72 h).
For `O=S1(=O)CC2(CCN([C@@H]3CC[C@H](c4ccc(C(F)(F)F)cc4)C3)C2)C1` [Compound 1C, 6-((1R,3S)-3-(4-(trifluoromethyl)phenyl)cyclopentyl)-2-thia-6-azaspiro[3.4]octane 2,2-dioxide], the Ki in assay [1] was 0.011 µM. Moreover, the 50% effective concentration (EC50) was found to be 0.0014 µM in assay [2] (Mus musculus, 24 h) and 0.0018 µM in the assay with EpiSC-derived OPCs (Mus musculus, 72 h).
On the same counts, the results for `O=S1(=O)CC2(CCN([C@H]3CC[C@@H](c4ccc(C(F)(F)F)nc4)CC3)CC2)C1` [81B*, 7-((1s,4s)-4-(6-(Trifluoromethyl)pyridin-3-yl)cyclohexyl)-2-thia-7-azaspiro[3.5]nonane 2,2-dioxide] are 0.47 µM, 0.042 µM and 0.27 µM.
On to `CC(C)n1nc(-c2cccc(C(F)(F)F)n2)cc1[C@H]1CC[C@@H](N2CCC3(CC2)CS(=O)(=O)C3)C1` (single isomer, unassigned) [46C*], for which, in assay [1], the Ki was determined as 0.013 µM. Further, the EC50 in assay [2] (Mus musculus, 24 h) was found to be 0.0017 µM; in the assay on EpiSC-derived OPCs (Mus musculus, 72 h), 0.0052 µM.
With `CC(C)n1nc(-c2cccc(C(F)(F)F)n2)cc1[C@H]1CC[C@H](N2CCC3(CC2)CS(=O)(=O)C3)C1` (single isomer, unassigned) [46D*], the affinity in assay [1] corresponds to a Ki of 0.012 µM. Besides, the EC50 is 0.0011 µM in assay [2] (Mus musculus, 24 h) and 0.0024 µM in the assay on EpiSC-derived OPCs (Mus musculus, 72 h).
In assay [1], `O=S1(=O)CC2(CCN(C3CCN(c4ncc(F)cc4C(F)(F)F)CC3)C2)C1` [Compound 45, 6-(1-(5-Fluoro-3-(trifluoromethyl)pyridin-2-yl)piperidin-4-yl)-2-thia-6-azaspiro[3.4]octane 2,2-dioxide] displayed a Ki of 0.017 µM. Moreover, the concentration for a half-maximal effect (EC50) came to 0.013 µM in assay [2] (Mus musculus, 24 h) and 0.049 µM in the assay on EpiSC-derived OPCs (Mus musculus, 72 h).
In turn, `O=S1(=O)CC2(CCN([C@H]3CC[C@H](c4ccc(C(F)(F)F)cc4)C3)C2)C1` [Compound 1D, 6-((1S,3S)-3-(4-(trifluoromethyl)phenyl)cyclopentyl)-2-thia-6-azaspiro[3.4]octane 2,2-dioxide] gave a Ki in assay [1] of 0.015 µM. Besides, the EC50 was 0.0049 µM in assay [2] (Mus musculus, 24 h) and 0.018 µM in the assay on EpiSC-derived OPCs (Mus musculus, 72 h).
In assay [1], `O=S1(=O)CC2(CCN([C@H]3CC[C@@H](c4ccc(F)c(F)c4)CC3)CC2)C1` [Compound 77B, 7-((1s,4s)-4-(3,4-difluorophenyl)cyclohexyl)-2-thia-7-azaspiro[3.5]nonane 2,2-dioxide] showed a Ki of 0.008 µM. Further, the EC50 came out at 0.005 µM in assay [2] (Mus musculus, 24 h) and 0.015 µM in the assay with EpiSC-derived OPCs (Mus musculus, 72 h).
Compound `O=S1(=O)CC2(CCN([C@@H]3CC[C@@H](c4ccc(C(F)(F)F)nc4)C3)CC2)C1` (single isomer, unassigned) [57B*] showed a Ki in assay [1] of 0.2 µM. The concentration for a half-maximal effect (EC50) stood at 0.044 µM in assay [2] and 0.16 µM in the assay on EpiSC-derived OPCs.
On to `CC(C)n1nc(C(F)(F)F)cc1[C@@H]1CCC[C@H](N2CCC3(CC2)CS(=O)(=O)C3)C1` (single isomer, unassigned) [78B*], for which, in assay [1], the affinity, expressed as Ki, was 0.026 µM. Further, the EC50 in assay [2] (Mus musculus, 24 h) came to 0.022 µM; in the assay on EpiSC-derived OPCs (Mus musculus, 72 h), 0.14 µM.
`CCn1nc(-c2ccc(C(F)(F)F)nc2)nc1[C@H]1CC[C@@H](N2CCC3(CC2)CS(=O)(=O)C3)CC1` (stereo in doubt) [43B*, (cis)-7-(-4-(1-ethyl-3-(6-(trifluoromethyl)pyridin-3-yl)-1H-1,2,4-triazol-5-yl)cyclohexyl)-2-thia-7-azaspiro[3.5]nonane 2,2-dioxide]: the affinity in assay [1] corresponds to a Ki of 0.51 µM. Further, the EC50 in assay [2] (Mus musculus, 24 h) was determined as 0.08 µM; with EpiSC-derived OPCs (Mus musculus, 72 h), 0.16 µM.
The matching figures for `CC(C)(C)n1nc(C2CC2)nc1[C@@H]1CC[C@H](N2CCC3(C2)CS(=O)(=O)C3)C1` [Compound 74A, 6-((1S,3R)-3-(1-(tert-butyl)-3-cyclopropyl-1H-1,2,4-triazol-5-yl)cyclopentyl)-2-thia-6-azaspiro[3.4]octane 2,2-dioxide]: 0.154 µM, 0.031 µM and 0.23 µM.
